The structures appear in SMILES notation. Bounds are passed on as bounds.

The text below walks through data of patent publication US10105552B2, “Formulations of histone deacetylase inhibitor and uses thereof” (Pharmacyclics LLC, priority 2009, dated 2018).

The nature of series [1]: Clinical trial PK of Compound 1 solution, oral and IV dosing. The note with it: human, in vivo, humans. As to the method:
In clinical trials involving humans with cancer, Compound 1 in solution form was administered at 2 mg/kg as a single oral dose and as multiple 2-hour IV infusion doses.
Compound 1 appears to be preferentially absorbed in the intestines.

The subject of series [2] is Neuroblastoma cell lines and patient-derived primary neuroblastoma cultures. The experiment in a line: Neuroblastoma cell viability, calcein AM assay. In kind it is cell-based. The note with it: 48 hours treatment. The procedure: Neuroblastoma cell lines and patient-derived primary neuroblastoma cultures were treated with bortezomib, Compound 1 alone or a combination of both agents for 48 hours. Cells were also treated with HDAC inhibitors vorinostat, sodium butyrate, and valproic acid and viability was assessed by calcein AM assays. mRNA from treated cells was evaluated at 6 and 24 hours using U133+ mRNA expression arrays and Ingenuity analysis. Dichlorofluorescein (DCF) was used to measure reactive oxygen species (ROS). Cell viability assays were repeated in the presence of N-acetylcysteine (NAC). Western blot evaluated caspase-3 and PARP cleavage. Nude mice were injected with 10^7 SMS-KCNR cells subcutaneously and treated with daily doses of 0.5 mg/kg bortezomib, 12.5 mg/kg Compound 1, or a combination of the two agents. Tumors were measured and imaged twice per week.

In series [3] the test system is lung, colon, prostate, pancreatic and brain tumors. The experiment in a line: Preclinical mouse tumor models. It counts as in vivo.
Another series has as its system RAD51. As to the kind of experiment: Pre-clinical models, DNA repair gene expression.
The nature of series [4]: Phase 1 trial, safety/tolerability and response by oral dosing schedule. In kind it is in vivo. The procedure:
This is a Phase 1 dose-escalation study of the safety, pharmacokinetics, and pharmacodynamics of Compound 1, HCl administered orally in patients with advanced cancer.
In the Phase 1 dose escalation study, up to 7 cohorts will receive Compound 1, HCl orally at doses starting at 30 mg/m^2, approximately 4-6 hours apart, up to 90 mg/m^2, 2 or 3 times a day according to 3 different dosing schedules within 28 day cycle (5 days of dosing followed by 2 days of no dosing; 5 days of dosing followed by 9 days of no dosing; 7 days of dosing followed by 7 days of no dosing) until the maximum tolerated dose is reached.
The doses were given at the same time each day. […] The two doses were given at the same time each day, with the second dose being administered approximately 4 to 6 hours from the first dose.
In the event that a patient experiences a treatment-related decrease in platelets to <25,000 per mm^2, the severity of the thrombocytopenia may be ameliorated by dosing in cycles consisting 5 consecutive days of oral dosing followed by 9 consecutive days without dosing.

In series [5] the test system is primary human tumors from patients with colon, ovarian, lung and many hematological cancers. As to the kind of experiment: Ex vivo activity in primary human tumors. It counts as cell-based.
For a further series, the system named is tumor cell lines. The experiment in a line: Preclinical activity against tumor cell lines. The note with it: many tumor cell lines. It counts as cell-based.

As for `CN(C)Cc1c(C(=O)NCCOc2ccc(C(=O)NO)cc2)oc2ccccc12` [Compound 1, N-hydroxy-4-{2-[3-(N,N-dimethylaminomethyl)benzofuran-2-ylcarbonylamino]ethoxy}-benzamide], the bioavailability in series [1] (2 mg/kg, immediate release capsules or an oral solution) is about 27%; in series [1] (from AUC0-∞ oral vs IV, 2 mg/kg solution) it was about 27%. The IC50 in series [2] was under 200 nM. The “efficacy in mouse tumor models” value in series [3] was “efficacious”. Also, in the series on RAD51, the “effect on RAD51 (and other DNA repair genes)” value is “able to turn off RAD51”. In addition, the therapeutic effect result in series [4] (immediate release capsule, 2 or 3 consecutive doses each 4 to 6 hours apart on dosing days) was “achieved”. The “incidence of Grade 4 thrombocytopenia (platelet count <25,000 per mm^2)” value in series [4] (in vivo, po) is “limited incidence”. In series [4] (solid tumor and lymphoma patients, cycles of 7 days oral dosing then 7 days without dosing), the pharmacodynamic response entry is given as “achieved”. For the same molecule, the “ex vivo activity in primary human tumors” value in series [5] is recorded as “active”. Also, the “activity against tumor cell lines” value in the series with tumor cell lines is “active”.
For the molecule `CC(C)C[C@H](NC(=O)[C@H](Cc1ccccc1)NC(=O)c1cnccn1)B(O)O` [bortezomib, reference compound], the IC50 in series [2] was under 50 nM.
